{"source": "paper PMC9645382", "about": "(Drug development research, 2019)", "target": "T1, human neutrophil elastase (HNE) (Homo sapiens, UniProt P08246)", "T1 sequence (P08246 30-267)": "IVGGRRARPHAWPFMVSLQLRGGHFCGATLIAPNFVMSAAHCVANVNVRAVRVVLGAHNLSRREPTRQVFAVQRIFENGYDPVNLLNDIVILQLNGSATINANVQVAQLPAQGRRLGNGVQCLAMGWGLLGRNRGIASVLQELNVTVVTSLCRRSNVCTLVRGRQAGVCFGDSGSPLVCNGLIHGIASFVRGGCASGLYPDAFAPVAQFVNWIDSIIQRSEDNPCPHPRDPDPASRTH", "experiment": "HNE inhibition assay", "type": "biochemical"}
{"smiles": "Cc1ccccc1-c1cn(C(=O)C2CC2)oc1=O", "note": "[Compound 3d, 2-(Cyclopropanecarbonyl)-4-(o-tolyl)isoxazol-5(2H)-one]", "values": [{"measurement": "IC50", "value": "39 ± 11", "unit": "nM"}]}
{"smiles": "O=C(C1CC1)n1cc(-c2ccccc2)c(=O)o1", "note": "[Compound 3a, 2-(Cyclopropanecarbonyl)-4-phenylisoxazol-5(2H)-one]", "values": [{"measurement": "IC50", "value": "16 ± 5", "unit": "nM"}]}
{"smiles": "Cc1ccc(-c2cn(C(=O)C3CC3)oc2=O)cc1", "note": "[Compound 3b, 2-(Cyclopropanecarbonyl)-4-(p-tolyl)isoxazol-5(2H)-one]", "values": [{"measurement": "IC50", "value": "26 ± 4", "unit": "nM"}]}
{"smiles": "Cc1cccc(C(=O)n2cc(-c3ccc(Cl)cc3)c(=O)o2)c1", "note": "[Compound 4f, 4-(4-Chlorophenyl)-2-(3-methylbenzoyl)isoxazol-5(2H)-one]", "values": [{"measurement": "IC50", "value": "25 ± 2", "unit": "nM"}]}
{"smiles": "O=C(C1CC1)n1cc(-c2ccc(Cl)cc2)c(=O)o1", "note": "[Compound 3f, 4-(4-Chlorophenyl)-2-(cyclopropanecarbonyl)isoxazol-5(2H)-one]", "values": [{"measurement": "IC50", "value": "42 ± 8", "unit": "nM"}]}
{"smiles": "O=C(C1CC1)n1cc(-c2ccc(Br)cc2)c(=O)o1", "note": "[Compound 3e, 4-(4-Bromophenyl)-2-(cyclopropanecarbonyl)isoxazol-5(2H)-one]", "values": [{"measurement": "IC50", "value": "31 ± 3", "unit": "nM"}]}
{"smiles": "Cc1ccc(-c2cn(C(=O)c3cccc(C)c3)oc2=O)cc1", "note": "[Compound 4b, 2-(3-Methylbenzoyl)-4-(p-tolyl)isoxazol-5(2H)-one]", "values": [{"measurement": "IC50", "value": "22 ± 7", "unit": "nM"}]}
{"smiles": "Cc1cccc(-c2cn(C(=O)C3CC3)oc2=O)c1", "note": "[Compound 3c, 2-(Cyclopropanecarbonyl)-4-(m-tolyl)isoxazol-5(2H)-one]", "values": [{"measurement": "IC50", "value": "22 ± 5", "unit": "nM"}]}
{"smiles": "Cc1cccc(C(=O)n2cc(-c3ccccc3)c(=O)o2)c1", "note": "[Compound 4a, 2-(3-Methylbenzoyl)-4-phenylisoxazol-5(2H)-one]", "values": [{"measurement": "IC50", "value": "46 ± 12", "unit": "nM"}]}
{"smiles": "COc1ccc(-c2cn(C(=O)C3CC3)oc2=O)cc1", "note": "[Compound 3g, 2-(Cyclopropanecarbonyl)-4-(4-methoxyphenyl)isoxazol-5(2H)-one]", "values": [{"measurement": "IC50", "value": "11 ± 3", "unit": "nM"}]}
{"smiles": "Cc1cccc(C(=O)n2cc(-c3ccc(C(F)(F)F)cc3)c(=O)o2)c1", "note": "[Compound 4i, 2-(3-Methylbenzoyl)-4-(4-[trifluoromethyl]phenyl)isoxazol-5(2H)-one]", "values": [{"measurement": "IC50", "value": "81 ± 28", "unit": "nM"}]}
{"smiles": "O=C(C1CC1)n1cc(-c2ccc(C(F)(F)F)cc2)c(=O)o1", "note": "[Compound 3i, 2-(Cyclopropanecarbonyl)-4-(4-(trifluoromethyl)phenyl)isoxazol-5(2H)-one]", "values": [{"measurement": "IC50", "value": "33 ± 1", "unit": "nM"}]}
{"smiles": "Cc1cccc(C(=O)n2cc(-c3ccc(C#N)cc3)c(=O)o2)c1", "note": "[Compound 4h, 4-(2-(3-Methylbenzoyl)-5-oxo-2,5-dihydroisoxazol-4-yl)benzonitrile]", "values": [{"measurement": "IC50", "value": "78 ± 2", "unit": "nM"}]}
{"smiles": "COc1ccc(-c2cn(C(=O)c3cccc(C)c3)oc2=O)cc1", "note": "[Compound 4g, 4-(4-Methoxyphenyl)-2-(3-methylbenzoyl)isoxazol-5(2H)-one]", "values": [{"measurement": "IC50", "value": "23 ± 7", "unit": "nM"}]}
{"smiles": "Cc1cccc(C(=O)n2cc(-c3ccccc3C)c(=O)o2)c1", "note": "[Compound 4d, 2-(3-Methylbenzoyl)-4-(o-tolyl)isoxazol-5(2H)-one]", "values": [{"measurement": "IC50", "value": "28 ± 3", "unit": "nM"}]}
{"smiles": "N#Cc1ccc(-c2cn(C(=O)C3CC3)oc2=O)cc1", "note": "[Compound 3h, 4-(2-(Cyclopropanecarbonyl)-5-oxo-2,5-dihydroisoxazol-4-yl)benzonitrile]", "values": [{"measurement": "IC50", "value": "18 ± 5", "unit": "nM"}]}
{"smiles": "Cc1cccc(C(=O)n2cc(-c3cccc(C)c3)c(=O)o2)c1", "note": "[Compound 4c, 2-(3-Methylbenzoyl)-4-(m-tolyl)isoxazol-5(2H)-one]", "values": [{"measurement": "IC50", "value": "31 ± 3", "unit": "nM"}]}
{"smiles": "Cc1cccc(C(=O)n2cc(-c3ccc(Br)cc3)c(=O)o2)c1", "note": "[Compound 4e, 4-(4-Bromophenyl)-2-(3-methylbenzoyl)isoxazol-5(2H)-one]", "values": [{"measurement": "IC50", "value": "47 ± 7", "unit": "nM"}]}
